{"source": "ChEMBL document CHEMBL1201862", "about": "“PubChem BioAssay data set” (2004)", "key": {"[1]": {"molecular_target": "RNA-editing ligase 1, mitochondrial (Trypanosoma brucei brucei, UniProt P86926)", "sequence (P86926 whole entry)": "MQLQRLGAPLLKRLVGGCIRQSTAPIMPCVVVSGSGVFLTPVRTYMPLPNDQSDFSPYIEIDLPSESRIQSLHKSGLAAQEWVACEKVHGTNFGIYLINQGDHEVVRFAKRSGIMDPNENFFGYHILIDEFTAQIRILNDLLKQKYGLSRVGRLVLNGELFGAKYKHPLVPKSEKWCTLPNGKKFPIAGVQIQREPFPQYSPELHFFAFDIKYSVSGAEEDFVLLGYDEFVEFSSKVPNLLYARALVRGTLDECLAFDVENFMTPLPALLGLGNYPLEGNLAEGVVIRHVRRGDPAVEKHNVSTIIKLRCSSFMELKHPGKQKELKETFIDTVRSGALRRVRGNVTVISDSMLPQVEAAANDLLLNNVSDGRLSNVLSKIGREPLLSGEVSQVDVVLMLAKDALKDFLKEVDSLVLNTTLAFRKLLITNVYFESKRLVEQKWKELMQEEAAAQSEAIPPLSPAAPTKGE", "assay": "TbREL1 ligase inhibitors, dose response, biochemical, fluorescence, Trypanosoma brucei (AID 1117295)", "type": "functional"}, "[2]": {"assay": "Artemis endonuclease inhibitor potency, dose response, biochemical, fluorescence intensity (AID 720701)", "type": "functional"}, "Cytochrome P450 2C19": {"molecular_target": "Cytochrome P450 2C19 (Homo sapiens, UniProt P33261)", "sequence (P33261 whole entry)": "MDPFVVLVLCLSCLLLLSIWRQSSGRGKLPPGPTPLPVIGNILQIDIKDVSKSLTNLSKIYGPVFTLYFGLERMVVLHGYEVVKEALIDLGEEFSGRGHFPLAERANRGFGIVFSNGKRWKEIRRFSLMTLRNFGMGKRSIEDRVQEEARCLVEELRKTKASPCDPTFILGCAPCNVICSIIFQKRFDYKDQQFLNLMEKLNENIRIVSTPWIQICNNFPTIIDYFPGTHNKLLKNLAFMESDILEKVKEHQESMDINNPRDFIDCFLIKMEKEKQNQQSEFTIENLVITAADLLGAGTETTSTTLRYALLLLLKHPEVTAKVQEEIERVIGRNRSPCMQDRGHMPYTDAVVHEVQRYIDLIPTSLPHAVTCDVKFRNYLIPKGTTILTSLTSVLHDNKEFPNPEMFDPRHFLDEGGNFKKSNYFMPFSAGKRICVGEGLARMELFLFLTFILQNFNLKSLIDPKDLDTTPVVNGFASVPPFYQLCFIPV", "assay": "Cytochrome panel assay with activity outcomes. Panel member name: p450-cyp2c19 Compounds with AC50 equal or less than 10 uM are considered active", "type": "functional"}, "[3]": {"molecular_target": "Glutathione-S-transferase (Schistosoma japonicum, UniProt Q26513)", "sequence (Q26513 whole entry)": "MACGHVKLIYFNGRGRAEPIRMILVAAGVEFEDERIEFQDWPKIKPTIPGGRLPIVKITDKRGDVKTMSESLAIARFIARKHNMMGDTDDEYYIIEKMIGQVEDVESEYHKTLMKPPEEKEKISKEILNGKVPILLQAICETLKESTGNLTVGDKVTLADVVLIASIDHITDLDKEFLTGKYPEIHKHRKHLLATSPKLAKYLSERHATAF", "assay": "biotin-GST/anti-GST TR-FRET signal inhibitors, dose response, artefact control for Vif-APOBEC3G degradation inhibitor project, biochemical (AID 1117362)", "type": "functional"}, "Cytochrome P450 2D6": {"molecular_target": "Cytochrome P450 2D6 (Homo sapiens, UniProt P10635)", "sequence (P10635 whole entry)": "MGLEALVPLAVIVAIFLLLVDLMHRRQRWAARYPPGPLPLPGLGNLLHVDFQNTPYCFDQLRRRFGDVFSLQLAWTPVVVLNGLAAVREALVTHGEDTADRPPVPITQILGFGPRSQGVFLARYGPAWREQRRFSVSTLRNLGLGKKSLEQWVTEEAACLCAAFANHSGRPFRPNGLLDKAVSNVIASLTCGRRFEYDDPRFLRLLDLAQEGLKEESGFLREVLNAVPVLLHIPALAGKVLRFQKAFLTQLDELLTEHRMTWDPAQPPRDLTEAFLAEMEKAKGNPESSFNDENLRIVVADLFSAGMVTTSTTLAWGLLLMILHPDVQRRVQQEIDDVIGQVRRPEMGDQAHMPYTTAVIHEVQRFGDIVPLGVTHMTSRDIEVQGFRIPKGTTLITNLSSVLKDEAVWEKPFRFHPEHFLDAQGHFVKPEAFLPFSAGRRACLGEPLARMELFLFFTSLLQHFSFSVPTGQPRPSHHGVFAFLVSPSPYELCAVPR"}, "Cytochrome P450 3A4": {"molecular_target": "Cytochrome P450 3A4 (Homo sapiens, UniProt P08684)", "sequence (P08684 whole entry)": "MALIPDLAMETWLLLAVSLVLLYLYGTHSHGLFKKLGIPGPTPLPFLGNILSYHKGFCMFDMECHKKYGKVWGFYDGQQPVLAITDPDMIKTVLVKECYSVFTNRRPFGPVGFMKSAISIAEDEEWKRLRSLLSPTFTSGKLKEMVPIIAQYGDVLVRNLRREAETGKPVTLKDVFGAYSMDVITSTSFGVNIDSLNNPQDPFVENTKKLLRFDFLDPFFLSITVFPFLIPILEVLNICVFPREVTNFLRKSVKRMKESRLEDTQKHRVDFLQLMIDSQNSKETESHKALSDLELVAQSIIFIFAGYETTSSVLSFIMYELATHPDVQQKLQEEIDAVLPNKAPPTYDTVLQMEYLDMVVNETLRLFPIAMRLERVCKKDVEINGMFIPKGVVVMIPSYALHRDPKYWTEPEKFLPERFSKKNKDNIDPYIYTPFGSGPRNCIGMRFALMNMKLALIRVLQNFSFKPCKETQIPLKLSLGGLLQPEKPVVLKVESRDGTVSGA"}, "[4]": {"molecular_target": "FAD-linked sulfhydryl oxidase ALR (Homo sapiens, UniProt P55789)", "sequence (P55789 whole entry)": "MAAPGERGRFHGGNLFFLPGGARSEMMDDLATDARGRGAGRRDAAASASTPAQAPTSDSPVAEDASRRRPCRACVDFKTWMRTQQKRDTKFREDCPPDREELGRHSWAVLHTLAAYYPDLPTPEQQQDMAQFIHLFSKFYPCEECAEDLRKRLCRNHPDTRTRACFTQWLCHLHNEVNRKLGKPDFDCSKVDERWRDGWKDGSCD", "assay": "inhibitors of human ALR sulfhydryl oxidase, dose response, biochemical, H2O2 detection, luminescence, cherry-pick (AID 493248)"}, "[5]": {"molecular_target": "T1, Rac GTPase-activating protein 1 (Homo sapiens, UniProt Q9H0H5)", "T1 sequence (Q9H0H5 whole entry)": "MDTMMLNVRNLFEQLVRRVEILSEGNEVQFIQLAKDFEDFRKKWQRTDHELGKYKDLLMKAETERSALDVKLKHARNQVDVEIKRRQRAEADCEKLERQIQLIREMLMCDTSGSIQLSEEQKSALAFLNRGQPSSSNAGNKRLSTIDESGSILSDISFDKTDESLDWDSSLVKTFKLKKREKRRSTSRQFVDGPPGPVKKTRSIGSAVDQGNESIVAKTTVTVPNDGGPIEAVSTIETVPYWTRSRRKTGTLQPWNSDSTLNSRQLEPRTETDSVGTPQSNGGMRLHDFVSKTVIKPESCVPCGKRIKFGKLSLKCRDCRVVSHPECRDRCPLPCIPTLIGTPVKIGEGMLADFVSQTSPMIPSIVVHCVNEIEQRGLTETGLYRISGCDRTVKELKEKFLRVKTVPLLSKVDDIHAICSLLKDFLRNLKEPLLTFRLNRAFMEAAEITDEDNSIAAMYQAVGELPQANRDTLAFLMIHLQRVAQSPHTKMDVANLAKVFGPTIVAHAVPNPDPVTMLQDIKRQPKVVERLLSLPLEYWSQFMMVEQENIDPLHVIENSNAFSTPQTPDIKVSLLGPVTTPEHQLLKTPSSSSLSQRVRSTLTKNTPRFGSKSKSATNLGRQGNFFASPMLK", "assay": "MgcRacGAP GTPase-activating activity inhibitors, confirmation, biochemical, ADP Hunter fluorescence, primary and confirmatory (AID 624330)", "type": "functional"}, "[6]": {"assay": "inhibitors of Vif binding to APOBEC3G peptide, primary screen, biochemical, TR-FRET, GST-Vif 1-94, biotin-A3G peptide, dose response retest (AID 1117319);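 also: inhibitors lower the FRET signal by blocking Vif and A3G binding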", "type": "functional"}, "[7]": {"molecular_target": "Voltage-gated inwardly rectifying potassium channel KCNH2 (Homo sapiens, UniProt Q12809)", "sequence (Q12809 whole entry)": "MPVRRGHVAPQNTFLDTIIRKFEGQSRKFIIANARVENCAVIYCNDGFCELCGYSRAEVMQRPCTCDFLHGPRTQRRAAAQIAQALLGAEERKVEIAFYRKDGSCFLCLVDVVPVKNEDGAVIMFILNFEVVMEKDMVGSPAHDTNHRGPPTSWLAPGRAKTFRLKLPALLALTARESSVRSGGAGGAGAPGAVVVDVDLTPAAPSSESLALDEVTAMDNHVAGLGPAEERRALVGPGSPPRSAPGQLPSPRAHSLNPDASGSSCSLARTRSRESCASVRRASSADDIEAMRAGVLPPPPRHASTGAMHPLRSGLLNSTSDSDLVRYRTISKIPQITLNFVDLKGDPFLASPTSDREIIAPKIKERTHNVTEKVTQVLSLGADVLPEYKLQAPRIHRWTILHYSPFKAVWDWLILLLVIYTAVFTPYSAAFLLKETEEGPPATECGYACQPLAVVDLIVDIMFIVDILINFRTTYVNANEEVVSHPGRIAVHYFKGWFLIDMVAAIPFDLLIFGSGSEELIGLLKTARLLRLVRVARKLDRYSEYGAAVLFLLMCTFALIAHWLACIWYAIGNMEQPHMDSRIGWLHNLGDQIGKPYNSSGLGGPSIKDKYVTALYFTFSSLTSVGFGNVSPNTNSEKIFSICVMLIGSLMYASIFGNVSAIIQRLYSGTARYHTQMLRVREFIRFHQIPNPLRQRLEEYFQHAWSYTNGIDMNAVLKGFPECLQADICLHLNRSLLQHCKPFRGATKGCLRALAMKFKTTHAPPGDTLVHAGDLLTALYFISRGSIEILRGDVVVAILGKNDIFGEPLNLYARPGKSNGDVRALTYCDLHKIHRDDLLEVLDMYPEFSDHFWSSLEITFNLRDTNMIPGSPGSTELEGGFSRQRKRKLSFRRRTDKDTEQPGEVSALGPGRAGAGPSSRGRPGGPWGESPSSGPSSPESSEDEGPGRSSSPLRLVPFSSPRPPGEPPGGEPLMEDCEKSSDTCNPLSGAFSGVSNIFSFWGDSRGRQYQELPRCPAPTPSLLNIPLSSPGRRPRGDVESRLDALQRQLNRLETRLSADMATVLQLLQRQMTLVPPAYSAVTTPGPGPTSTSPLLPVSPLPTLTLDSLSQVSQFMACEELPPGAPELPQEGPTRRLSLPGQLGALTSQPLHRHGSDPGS", "assay": "hERG protection from proarrhythmic block, potency, dose response, cell-based, thallium flux (AID 2121)", "type": "ADME"}, "[8]": {"molecular_target": "T2, Mannose-6-phosphate isomerase (Homo sapiens, UniProt P34949)", "T2 sequence (P34949 whole entry)": "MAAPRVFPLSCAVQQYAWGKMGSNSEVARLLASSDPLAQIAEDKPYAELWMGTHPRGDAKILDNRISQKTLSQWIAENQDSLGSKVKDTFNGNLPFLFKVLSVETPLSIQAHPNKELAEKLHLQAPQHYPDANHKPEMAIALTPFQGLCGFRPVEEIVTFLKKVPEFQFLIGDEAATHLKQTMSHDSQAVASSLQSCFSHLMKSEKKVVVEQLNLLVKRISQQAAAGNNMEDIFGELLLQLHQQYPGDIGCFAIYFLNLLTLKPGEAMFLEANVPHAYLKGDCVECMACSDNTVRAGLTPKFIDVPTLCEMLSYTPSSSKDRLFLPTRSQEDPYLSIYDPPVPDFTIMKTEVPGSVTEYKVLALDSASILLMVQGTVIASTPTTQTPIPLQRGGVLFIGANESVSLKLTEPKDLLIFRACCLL", "assay": "human PMI inhibitors, high substrate, primary screen, biochemical, fluorescence intensity, high mannose 6-phosphate (AID 1220)"}, "[9]": {"molecular_target": "T3, Replicative DNA helicase DnaB (Mycobacterium tuberculosis, UniProt P9WMR3)", "T3 sequence (P9WMR3 whole entry)": "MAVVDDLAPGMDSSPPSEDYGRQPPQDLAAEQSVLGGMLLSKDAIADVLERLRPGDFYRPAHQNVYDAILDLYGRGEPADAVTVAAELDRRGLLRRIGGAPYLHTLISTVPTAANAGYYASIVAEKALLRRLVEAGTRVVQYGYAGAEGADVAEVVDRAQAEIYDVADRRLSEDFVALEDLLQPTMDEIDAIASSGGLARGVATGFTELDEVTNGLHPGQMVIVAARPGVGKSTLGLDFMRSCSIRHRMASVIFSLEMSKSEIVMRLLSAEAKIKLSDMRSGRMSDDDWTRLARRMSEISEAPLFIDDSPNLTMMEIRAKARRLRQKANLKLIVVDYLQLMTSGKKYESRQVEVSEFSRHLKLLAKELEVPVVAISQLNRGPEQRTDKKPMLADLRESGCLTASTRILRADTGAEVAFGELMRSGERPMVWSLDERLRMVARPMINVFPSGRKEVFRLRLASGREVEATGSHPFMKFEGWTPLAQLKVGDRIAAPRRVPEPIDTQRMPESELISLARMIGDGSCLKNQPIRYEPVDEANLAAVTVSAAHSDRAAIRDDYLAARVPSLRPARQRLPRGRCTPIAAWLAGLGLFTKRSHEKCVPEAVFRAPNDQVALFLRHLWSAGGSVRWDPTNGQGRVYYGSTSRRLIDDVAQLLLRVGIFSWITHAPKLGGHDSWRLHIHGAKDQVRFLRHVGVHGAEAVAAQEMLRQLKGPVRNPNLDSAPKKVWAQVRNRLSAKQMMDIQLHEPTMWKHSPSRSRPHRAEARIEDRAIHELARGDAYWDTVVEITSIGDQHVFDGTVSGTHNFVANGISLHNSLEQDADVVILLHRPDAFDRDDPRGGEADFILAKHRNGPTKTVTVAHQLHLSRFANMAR", "assay": "DnaB intein splicing inhibitors, dose response, biochemical, cell-free fluorescence (AID 449749)", "type": "functional"}, "Protein RecA": {"molecular_target": "T4, Protein RecA (Mycobacterium tuberculosis, UniProt P9WHJ3)", "T4 sequence (P9WHJ3 whole entry)": "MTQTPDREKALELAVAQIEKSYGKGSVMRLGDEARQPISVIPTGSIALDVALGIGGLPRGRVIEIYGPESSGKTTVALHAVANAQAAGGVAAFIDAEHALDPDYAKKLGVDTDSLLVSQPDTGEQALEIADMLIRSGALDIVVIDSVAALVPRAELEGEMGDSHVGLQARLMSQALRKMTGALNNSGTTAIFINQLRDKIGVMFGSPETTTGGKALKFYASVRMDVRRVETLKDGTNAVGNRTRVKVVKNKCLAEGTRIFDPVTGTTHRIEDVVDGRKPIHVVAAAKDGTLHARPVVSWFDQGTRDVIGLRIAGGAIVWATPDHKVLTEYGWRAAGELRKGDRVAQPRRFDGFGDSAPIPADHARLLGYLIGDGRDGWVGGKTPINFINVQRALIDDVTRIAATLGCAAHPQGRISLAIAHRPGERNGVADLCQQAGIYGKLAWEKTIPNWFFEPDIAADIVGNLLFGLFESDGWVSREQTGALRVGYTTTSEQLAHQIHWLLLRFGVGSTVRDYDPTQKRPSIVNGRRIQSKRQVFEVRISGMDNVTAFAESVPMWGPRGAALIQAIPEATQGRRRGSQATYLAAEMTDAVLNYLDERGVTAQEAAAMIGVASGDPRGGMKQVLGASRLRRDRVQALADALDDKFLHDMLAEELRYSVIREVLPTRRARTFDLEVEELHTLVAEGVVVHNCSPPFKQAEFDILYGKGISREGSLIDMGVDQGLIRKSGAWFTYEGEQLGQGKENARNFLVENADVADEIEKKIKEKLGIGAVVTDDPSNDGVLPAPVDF", "assay": "Fluorescence Cell-Free Homogeneous Dose Retest to Identify Inhibitors of RecA-Intein Splicing Activity. [Related pubchem assays (depositor defined):AID2097, AID2223, AID489010, AID492950]", "type": "functional"}, "Caspase-6": {"molecular_target": "T5, Caspase-6 (Homo sapiens, UniProt P55212)", "T5 sequence (P55212 whole entry)": "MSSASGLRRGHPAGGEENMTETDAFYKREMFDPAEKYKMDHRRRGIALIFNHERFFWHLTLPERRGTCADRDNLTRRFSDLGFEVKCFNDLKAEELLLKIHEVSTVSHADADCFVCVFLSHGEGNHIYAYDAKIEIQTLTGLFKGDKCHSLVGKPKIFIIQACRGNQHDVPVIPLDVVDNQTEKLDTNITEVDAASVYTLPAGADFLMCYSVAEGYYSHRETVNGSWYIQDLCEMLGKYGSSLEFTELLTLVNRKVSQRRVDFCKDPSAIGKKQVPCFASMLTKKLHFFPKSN", "assay": "human caspase-6 inhibitors, dose response, biochemical, VEID-R110 fluorescence, cherry-pick (AID 720632)"}, "Caspase-9": {"molecular_target": "Caspase-9 (Homo sapiens, UniProt P55211)", "sequence (P55211 1-315 limits assumed)": "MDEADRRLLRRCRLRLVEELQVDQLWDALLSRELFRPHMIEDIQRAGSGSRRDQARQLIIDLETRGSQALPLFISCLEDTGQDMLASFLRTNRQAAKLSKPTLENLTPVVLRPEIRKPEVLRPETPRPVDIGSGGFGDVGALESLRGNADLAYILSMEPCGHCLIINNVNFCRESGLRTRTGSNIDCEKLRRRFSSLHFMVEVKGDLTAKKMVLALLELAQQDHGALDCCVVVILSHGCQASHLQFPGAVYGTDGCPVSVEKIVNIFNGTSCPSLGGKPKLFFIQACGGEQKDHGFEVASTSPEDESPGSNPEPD", "sequence (P55211 331-416 limits assumed)": "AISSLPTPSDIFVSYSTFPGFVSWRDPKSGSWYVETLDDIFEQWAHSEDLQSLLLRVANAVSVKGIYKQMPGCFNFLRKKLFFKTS", "assay": "caspase-9 enzyme inhibition, dose response, selectivity assay for caspase-6 inhibitor project, biochemical, fluorescence, plate reader, cherry-picked samples (AID 743293)"}, "[10]": {"assay": "Luminescence-based cell-based high throughput dose response assay to identify activators of the DAF-12 from the parasite S. stercoralis (ssDAF-12).", "type": "functional"}, "[11]": {"molecular_target": "T6, Oxysterols receptor LXR-beta (Homo sapiens, UniProt P55055)", "T6 sequence (P55055 whole entry)": "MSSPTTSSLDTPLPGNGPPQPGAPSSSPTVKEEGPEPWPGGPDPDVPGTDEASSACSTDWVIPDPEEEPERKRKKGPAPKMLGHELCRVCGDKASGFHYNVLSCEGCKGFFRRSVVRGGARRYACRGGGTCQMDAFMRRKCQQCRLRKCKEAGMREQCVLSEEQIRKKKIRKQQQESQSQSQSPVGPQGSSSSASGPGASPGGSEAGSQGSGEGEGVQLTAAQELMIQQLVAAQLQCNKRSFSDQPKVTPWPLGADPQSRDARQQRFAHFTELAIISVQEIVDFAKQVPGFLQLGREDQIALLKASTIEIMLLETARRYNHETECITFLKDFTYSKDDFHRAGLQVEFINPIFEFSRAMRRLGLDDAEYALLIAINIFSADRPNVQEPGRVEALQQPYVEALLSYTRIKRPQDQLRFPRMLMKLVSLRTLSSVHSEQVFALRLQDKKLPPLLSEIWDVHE", "assay": "LXR agonists, Gal4 luciferase reporter, dose response, counter-screen for ssDAF-12 agonist project, cell-based, luminescence, HEK293, S. stercoralis campaign (AID 720737)", "type": "functional", "conditions": "read-out: IC50 (the source's name)"}, "Caspase-8": {"molecular_target": "Caspase-8 (Homo sapiens, UniProt Q14790)", "sequence (Q14790 217-374 limits assumed)": "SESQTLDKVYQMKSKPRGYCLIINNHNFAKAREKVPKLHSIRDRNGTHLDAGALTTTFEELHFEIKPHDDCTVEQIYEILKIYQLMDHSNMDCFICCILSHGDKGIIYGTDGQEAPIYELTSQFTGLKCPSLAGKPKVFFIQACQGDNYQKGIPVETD", "sequence (Q14790 385-479 limits assumed)": "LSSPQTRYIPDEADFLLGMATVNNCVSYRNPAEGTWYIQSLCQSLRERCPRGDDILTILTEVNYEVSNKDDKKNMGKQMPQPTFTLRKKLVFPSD", "assay": "caspase-8 inhibition counter-screen, dose response, selectivity assay for caspase-6 inhibitor project, biochemical, Z-IETD-R110 fluorescence, cherry-picked samples (AID 743294)"}}, "note": "Calls of active or inactive are those of the source."}
{"smiles": "CCNC1=NC(c2ccccc2C(F)(F)F)C(C(=O)OC)=C(C)N1Cc1ccc(C(F)(F)F)cc1", "note": "(centres undefined)", "values": [{"measurement": "IC50", "setting": "[1]", "value": "> 96.6 µM (inactive)"}]}
{"smiles": "Cc1cc(C)n(-c2nc(NCC(C)O)c3c4c(sc3n2)CCCC4)n1", "note": "(centres undefined)", "values": [{"measurement": "IC50", "setting": "[2]", "value": "15 µM (active)"}]}
{"smiles": "C=CCn1c(C)c(C(C)=O)c(N2CCN(c3ccccc3)CC2)nc1=S", "values": [{"measurement": "AC50", "setting": "Cytochrome P450 2C19", "value": "5.62 µM (inconclusive)"}, {"measurement": "IC50", "setting": "[3]", "value": "19.8 µM (active)"}, {"measurement": "AC50", "setting": "Cytochrome P450 2D6", "value": "22.4 µM (inconclusive)"}, {"measurement": "AC50", "setting": "Cytochrome P450 3A4", "value": "25.1 µM (inconclusive)"}]}
{"smiles": "COc1cc(/C=N/NC2=NC(=O)C(c3ccccc3)S2)ccc1O", "note": "(centres undefined)", "values": [{"measurement": "AC50", "setting": "[4]", "value": "0.249 µM (active)"}, {"measurement": "IC50", "setting": "[5]", "value": "44.3 µM (active)"}, {"measurement": "IC50", "setting": "[6]", "value": "> 100 µM (active)"}]}
{"smiles": "COc1ccc(OC)c(NC(=O)C(=O)NNC(=O)c2cccs2)c1", "values": [{"measurement": "EC50", "setting": "[7]", "value": "3.5 µM (active)"}]}
{"smiles": "COC(=O)C1=C(C)N(Cc2ccc(C(F)(F)F)cc2)C(NCc2ccc3c(c2)OCO3)=NC1c1ccccc1C(F)(F)F", "note": "(centres undefined)", "values": [{"measurement": "IC50", "setting": "[1]", "value": "> 96.6 µM (inactive)"}]}
{"smiles": "Nc1cc2nn(-c3ccccc3)nc2cc1Cl", "values": [{"measurement": "IC50", "setting": "[8]", "value": "> 50 µM (not active)"}, {"measurement": "AC50", "setting": "[9]", "value": "16.5 µM (active)"}, {"measurement": "EC50", "setting": "Protein RecA", "value": "3.48 µM (active)"}, {"measurement": "AC50", "setting": "Caspase-6", "value": "2 µM (active)"}, {"measurement": "AC50", "setting": "Caspase-9", "value": "29.9 µM (active)"}, {"measurement": "IC50", "setting": "[10]", "value": "> 67.5 µM (inactive)"}, {"measurement": "EC50", "setting": "[11]", "value": "> 67.5 µM (inactive)"}, {"measurement": "AC50", "setting": "Caspase-8", "value": "12.7 µM (active)"}]}
